Measurements taken from patent US20110070320A1, “BIODEGRADABLE THERMORESPONSIVE 3-ARM POLYETHYLENE GLYCOL POLY(LACTIDE-CO-GLYCOLIDE) COPOLYMER FOR GINSENG ADMINISTRATION” (priority 2009, published 2011).

Legend:
Assay type in all cases: physicochemical
[1] = Doxorubicin release from copolymer aqueous gel; conditions: 37° C.; 20% (w/w) copolymer gel; FIG. 3
Protocol: Doxorubicin was used as a hydrophilic drug in a drug release study using the copolymer of EXAMPLE 1 in a 20% (w/w) aqueous solution. The drug (4 mg) was dissolved in 2 ml of the polymer solution. The drug/polymer solution was filtered through a 0.2 μm syringe and an aliquot of 0.5 ml of the solution was added to each sample vial. The triplet samples were placed in a water bath preheated and stabilized at 37° C. After 10 min a buffer solution of 1×PBS (1 ml, preheated at 37° C.) was added to each sample vial containing a gelled drug/polymer solution. The drug contents in the release media, which were removed and replaced with fresh PBS solutions at each sampling point, were determined at 1, 3, 6 h and then daily for 8 days by a spectrophotometer (SpecraMax M2 by Molecular Devices).

[2] = Paclitaxel release from copolymer aqueous gel; conditions: 37° C.; 20% (w/w) copolymer gel; FIG. 2
Protocol: Paclitaxel was used as a hydrophobic drug in a drug release study using the copolymer of EXAMPLE 1 in a 20% (w/w) aqueous solution. The drug (4 mg) was added to a 4 ml vial containing 0.2 ml of the polymer solution. At 4° C. the sample vial was sonicated for 15 min and vortexed for 16 h and sonicated for 15 min again to give a slightly cloudy suspension. After filtered through a 0.2 μm syringe filter an aliquot (0.2 ml) of the solution was added to each sample vial. The triplet samples were placed in a water bath preheated and stabilized at 37° C. After 10 min a buffer solution of 1×PBS (3 ml, preheated at 37° C.) containing 2.4% (w/w) of Tween 80 and 4% (w/w) of Cremophor EL was added to each sample vial containing a gelled drug/polymer solution. The drug release was determined by taking an aliquot of the medium from each sample vial at 1.5 h, 6 h and then daily for 10 days and analyzing the drug content of the sample by HPLC (mobile phase 1 ml/min 50/50 acetonitrile/deioned water, wavelength 227 nm, running time 15 min).

[3] = Enhanced drug solubility in polymer gel (HPLC); conditions: aqueous solution of Example 1 polymer (20% w/w); filtered 0.2 μm
Protocol: In a 4 ml vial the polymer from EXAMPLE 1 (200 mg) and paclitaxel (2 mg) were dissolved in acetone (1·ml). The mixture was evaporated under vacuum for 16 h. Deionized water (0.8 ml) was added and the mixture was stirred at 4° C. for 24 h. The resulting solution was filtered through a 0.2 μm syringe filter to give a clear solution. An aliquot of the solution was diluted 100-fold with acetonitrile and analyzed for paclitaxel by HPLC (mobile phase: water/acetonitrile 1:1, 1 ml/min, injection volume: 20 μl, running time: 15 min, column: Waters Symmetry 300™ 4.6×250 mm, C18 5 μm, detector: Waters 2996).

duration of controlled drug release from copolymer aqueous gel [1] | duration of controlled drug release from copolymer aqueous gel [2] | paclitaxel content in the aqueous solution [3] | Structure (SMILES)
8 days | – | – | COc1cccc2c1C(=O)c1c(O)c3c(c(O)c1C2=O)C[C@@](O)(C(=O)CO)C[C@@H]3O[C@H]1C[C@H](N)[C@H](O)[C@H](C)O1 [doxorubicin, Doxorubicin]
– | 10 days | 6.4 mg/mL | CC(=O)O[C@H]1C(=O)[C@@]2(C)[C@H]([C@H](OC(=O)c3ccccc3)[C@]3(O)C[C@H](OC(=O)[C@H](O)[C@@H](NC(=O)c4ccccc4)c4ccccc4)C(C)=C1C3(C)C)[C@]1(OC(C)=O)CO[C@@H]1C[C@@H]2O [paclitaxel, Paclitaxel]
